Measured values from patent publication US20230091225A1, “Bifunctional chimeric heterocyclic compounds for targeted degradation of androgen receptors and use thereof” (HINOVA PHARMACEUTICALS INC., priority 2019, published 2023).
Like-named read-outs stand apart in the source and are kept apart here.

Target: T1, androgen receptor (AR) (Homo sapiens, UniProt P10275)
T1 sequence (P10275 1-920): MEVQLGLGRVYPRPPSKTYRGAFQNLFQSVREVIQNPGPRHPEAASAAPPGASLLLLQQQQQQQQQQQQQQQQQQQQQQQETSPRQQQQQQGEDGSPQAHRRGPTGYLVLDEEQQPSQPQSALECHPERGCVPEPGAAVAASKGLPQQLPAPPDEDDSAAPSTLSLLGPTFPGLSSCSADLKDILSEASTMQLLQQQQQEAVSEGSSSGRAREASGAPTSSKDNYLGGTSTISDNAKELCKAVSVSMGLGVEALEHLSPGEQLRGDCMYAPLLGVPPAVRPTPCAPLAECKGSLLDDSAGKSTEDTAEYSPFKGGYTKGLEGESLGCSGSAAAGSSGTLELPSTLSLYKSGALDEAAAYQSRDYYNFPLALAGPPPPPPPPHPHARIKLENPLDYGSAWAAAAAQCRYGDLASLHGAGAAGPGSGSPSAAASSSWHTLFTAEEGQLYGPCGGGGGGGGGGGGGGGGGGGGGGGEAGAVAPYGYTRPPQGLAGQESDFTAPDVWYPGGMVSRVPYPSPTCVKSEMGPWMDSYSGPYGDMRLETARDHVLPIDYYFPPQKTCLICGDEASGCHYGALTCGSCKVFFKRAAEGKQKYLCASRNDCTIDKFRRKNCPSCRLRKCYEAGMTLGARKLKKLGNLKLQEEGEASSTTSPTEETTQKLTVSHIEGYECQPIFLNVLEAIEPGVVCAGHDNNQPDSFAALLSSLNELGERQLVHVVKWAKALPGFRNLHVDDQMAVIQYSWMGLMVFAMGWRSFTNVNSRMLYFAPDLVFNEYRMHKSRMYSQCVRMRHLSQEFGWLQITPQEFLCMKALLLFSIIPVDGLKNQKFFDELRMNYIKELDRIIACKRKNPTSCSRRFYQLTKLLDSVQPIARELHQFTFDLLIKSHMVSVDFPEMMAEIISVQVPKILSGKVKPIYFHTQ
Assay: Degradation of androgen receptor (AR) protein in VCaP cells by ELISA
Assay type: cell-based
Details: for Dmax: VCaP

[1] = AR degradation, VCaP cells, 16 h, ELISA, Table 3-1, read-out: DC50
[2] = AR degradation, VCaP cells, 16 h, ELISA, Table 3-1, read-out: Dmax (%)
[3] = AR degradation, VCaP cells, 16 h, ELISA, Table 3-2, read-out: DC50

SMILES | DC50 [1] [nM] | Dmax [2] [%] | further results
N#Cc1ccc(O[C@H]2CC[C@H](NC(=O)c3ncnn3[C@H]3CC[C@H](CN4CCC5(CC4)CN(c4ccc6c(c4)C(=O)N(C4CCC(=O)NC4=O)C6=O)C5)CC3)CC2)cc1Cl (stereo partly drawn) [Compound 86, N-((1r,4R)-4-(3-chloro-4-cyanophenoxy)cyclohexyl)-1-((1r,4R)-4-((2-(2-(2,6-dioxopiperidin-3-yl)-1,3-dioxoisoindolin-5-yl)-2,7-diazaspiro[3.5]nonan-7-yl)methyl)cyclohexyl)-1H-1,2,4-triazole-5-formamide] | 100 to 300 | 60 to 80 | 
N#Cc1ccc(O[C@H]2CC[C@H](NC(=O)c3ncnn3[C@H]3CC[C@H](CN4CCC5(CC4)CN(c4cc6c(cc4F)C(=O)N(C4CCC(=O)NC4=O)C6=O)C5)CC3)CC2)cc1Cl (stereo partly drawn) [Compound 87] | 100 to 300 | 40 to 60 | 
N#Cc1ccc(O[C@H]2CC[C@H](NC(=O)c3ccc(N4CC5(CN(C[C@@H]6[C@H]7CN(c8cc9c(cc8F)C(=O)N(C8CCC(=O)NC8=O)C9=O)C[C@@H]67)C5)C4)nn3)CC2)cc1Cl (stereo partly drawn) [Compound 92] | < 10 | > 80 | 
N#Cc1ccc(O[C@H]2CC[C@H](NC(=O)c3ccc(N4CCCN(C[C@@H]5[C@H]6CN(c7cc8c(cc7F)C(=O)N(C7CCC(=O)NC7=O)C8=O)C[C@@H]56)CC4)nn3)CC2)cc1Cl (stereo partly drawn) [Compound 93] | 10 to 100 | 60 to 80 | 
N#Cc1ccc(OC2CCC(NC(=O)c3cnc(N4CCN(CC5[C@H]6CN(c7cc8c(cc7F)C(=O)N(C7CCC(=O)NC7=O)C8=O)C[C@@H]56)CC4)cn3)CC2)cc1C(F)(F)F (stereo partly drawn) [Compound 94] |  |  | Dmax (%): +++ (key: ++++: >80%; +++: 80%-60%; ++: 60%-40%; +: <40%); DC50 (read-out: DC50): 10 to 100 nM
N#Cc1ccc(OC2CCC(NC(=O)c3ccc(N4CCN(CC5[C@H]6CN(c7cc8c(cc7F)C(=O)N(C7CCC(=O)NC7=O)C8=O)C[C@@H]56)CC4)nn3)CC2)cc1C(F)(F)F (stereo partly drawn) [Compound 95] |  |  | Dmax (%): +++ (key: ++++: >80%; +++: 80%-60%; ++: 60%-40%; +: <40%); DC50 (read-out: DC50): 10 to 100 nM
N#Cc1ccc(O[C@H]2CC[C@H](NC(=O)c3cnc(N4CC5(CCN(CC6CCN(c7cc8c(cc7F)C(=O)N(C7CCC(=O)NC7=O)C8=O)CC6)C5)C4)cn3)CC2)cc1Cl (stereo partly drawn) [Compound 96] | < 10 | > 80 | 
N#Cc1ccc(O[C@H]2CC[C@H](NC(=O)c3ccc(N4CC5(CCN(C6CCN(c7cc8c(cc7F)C(=O)N(C7CCC(=O)NC7=O)C8=O)CC6)CC5)C4)nn3)CC2)cc1Cl (stereo partly drawn) [Compound 97, N-((1r,4r)-4-(3-chloro-4-cyanophenoxy)cyclohexyl)-6-(7-(1-(2-(2,6-dioxopiperidin-3-yl)-6-fluoro-1,3-dioxoisoindolin-5-yl)piperidine-4-yl)-2,7-diazaspiro[3.5]nonan-2-yl)pyridazine-3-carboxamide] | < 10 |  | Dmax: > 80%
N#Cc1ccc(O[C@H]2CC[C@H](NC(=O)c3ncc(N4CC5(CCN(C6CCN(c7ccc8c(c7)C(=O)N(C7CCC(=O)NC7=O)C8=O)CC6)CC5)C4)cn3)CC2)cc1Cl (stereo partly drawn) [Compound 106, N-((1r,4r)-4-(3-chloro-4-cyanophenoxy)cyclohexyl)-5-(7-(1-(2-(2,6-dioxopiperidin-3-yl)-1,3-dioxoisoindolin-5-yl)piperidine-4-yl)-2,7-diazaspiro[3.5]nonan-2-yl)pyrimidine-2-carboxamide] |  |  | DC50 [3]: > 300 nM; Dmax: < 40%
N#Cc1ccc(O[C@H]2CC[C@H](NC(=O)c3nnc(N4CC5(CCN(CC6CCN(c7cc8c(cc7F)C(=O)N(C7CCC(=O)NC7=O)C8=O)CC6)CC5)C4)s3)CC2)cc1Cl (stereo partly drawn) [Compound 107, N-((1r,4r)-4-(3-chloro-4-cyanophenoxy)cyclohexyl)-5-(7-((1-(2-(2,6-dioxopiperidin-3-yl)-6-fluoro-1,3-dioxoisoindolin-5-yl)piperidine-4-yl)methyl)-2,7-diazaspiro[3.5]nonan-2-yl)-1,3,4-thiadiazole-2-carboxamide] |  |  | DC50 [3]: < 10 nM; Dmax (AR degradation, VCaP cells, 16 h, ELISA, Table 3-2, read-out: Dmax (%)): > 80%
N#Cc1ccc(OC2CCC(NC(=O)c3cn(C4CCC(CN5CCC6(CC5)CN(c5cc7c(cc5F)C(=O)N(C5CCC(=O)NC5=O)C7=O)C6)CC4)cn3)CC2)cc1Cl [Compound 112, N-((1r,4R)-4-(3-chloro-4-cyanophenoxy)cyclohexyl)-1-((1r,4R)-4-((2-(2,6-dioxopiperidin-3-yl)-6-fluoro-1,3-dioxoisoindolin-5-yl)-2,7-diazaspiro[3.5]nonan-7-yl)methyl)cyclohexyl)-1H-imidazole-4-carboxamide] |  |  | Dmax (%): + (key: ++++: >80%; +++: 80%-60%; ++: 60%-40%; +: <40%); DC50 (read-out: DC50): > 300 nM
N#Cc1ccc(OC2CCC(NC(=O)c3cn(C4CCC(CN5CCC6(CC5)CN(c5ccc7c(c5)C(=O)N(C5CCC(=O)NC5=O)C7=O)C6)CC4)cn3)CC2)cc1Cl [Compound 113, N-((1r,4R)-4-(3-chloro-4-cyanophenoxy)cyclohexyl)-1-((1r,4R)-4-((2-(2-(2,6-dioxopiperidin-3-yl)-1,3-dioxoisoindolin-5-yl)-2,7-diazaspiro[3.5]nonan-7-yl)methyl)cyclohexyl)-1H-imidazole-4-formamide] |  |  | Dmax (%): ++++ (key: A: >80%; B: 79%-50%; C: 49%-25%; D: <25%); DC50 (read-out: DC50): < 10 nM
N#Cc1ccc(O[C@H]2CC[C@H](NC(=O)c3cn([C@H]4CC[C@H](CN5CCC6(CC5)CN(c5ccc7c(c5)C(=O)N(C5CCC(=O)NC5=O)C7=O)C6)CC4)nn3)CC2)cc1Cl (stereo partly drawn) [Compound 114, N-((1r,4R)-4-(3-chloro-4-cyanophenoxy)cyclohexyl)-1-((1r,4R)-4-((2-(2-(2,6-dioxopiperidin-3-yl)-1,3-dioxoisoindolin-5-yl)-2,7-diazaspiro[3.5]nonan-7-yl)methyl)cyclohexyl)-1H-1,2,3-triazole-4-carboxamide] | < 10 | > 80 | 
N#Cc1ccc(O[C@H]2CC[C@H](NC(=O)c3cn([C@H]4CC[C@H](CN5CCC6(CC5)CN(c5cc7c(cc5F)C(=O)N(C5CCC(=O)NC5=O)C7=O)C6)CC4)nn3)CC2)cc1Cl (stereo partly drawn) [Compound 115] | < 10 | > 80 | 
N#Cc1ccc(O[C@H]2CC[C@H](NC(=O)c3cnn([C@H]4CC[C@H](CN5CCC6(CC5)CN(c5ccc7c(c5)C(=O)N(C5CCC(=O)NC5=O)C7=O)C6)CC4)n3)CC2)cc1Cl (stereo partly drawn) [Compound 116, N-((1r,4R)-4-(3-chloro-4-cyanophenoxy)cyclohexyl)-2-((1r,4R)-4-((2-(2-(2,6-dioxopiperidin-3-yl)-1,3-dioxoisoindolin-5-yl)-2,7-diazaspiro[3.5]nonan-7-yl)methyl)cyclohexyl)-2H-1,2,3-triazole-4-carboxamide] | < 10 | > 80 | 
N#Cc1ccc(O[C@H]2CC[C@H](NC(=O)c3cnn([C@H]4CC[C@H](CN5CCC6(CC5)CN(c5cc7c(cc5F)C(=O)N(C5CCC(=O)NC5=O)C7=O)C6)CC4)n3)CC2)cc1Cl (stereo partly drawn) [Compound 117] | 100 to 300 | > 80 | 
CN(C1CCN(c2ccc(C(=O)N[C@H]3CC[C@H](Oc4ccc(C#N)c(Cl)c4)CC3)nn2)CC1)C1CCN(c2cc3c(cc2F)C(=O)N(C2CCC(=O)NC2=O)C3=O)CC1 (stereo partly drawn) [Compound 119] | < 10 |  | Dmax: > 80%
N#Cc1ccc(O[C@H]2CC[C@H](NC(=O)c3ccc(N4CCC(CN5CC6(C5)CN(c5ccc7c(c5)C(=O)N(C5CCC(=O)NC5=O)C7=O)C6)CC4)nn3)CC2)cc1Cl (stereo partly drawn) [Compound 121, N-((1r,4r)-4-(3-chloro-4-cyanophenoxy)cyclohexyl)-6-(4-((6-(2-(2,6-dioxopiperidin-3-yl)-1,3-dioxoisoindolin-5-yl)-2,6-diazaspiro[3.3]heptan-2-yl)methyl)piperidin-1-yl)pyridazine-3-amide] |  |  | DC50: < 10 nM; Dmax: > 80%
N#Cc1ccc(O[C@H]2CC[C@H](NC(=O)c3ccc(N4CCC(CN5CC6(C5)CN(c5cc7c(cc5F)C(=O)N(C5CCC(=O)NC5=O)C7=O)C6)CC4)nn3)CC2)cc1Cl (stereo partly drawn) [Compound 122, N-((1r,4r)-4-(3-chloro-4-cyanophenoxy)cyclohexyl)-6-(4-((6-(2-(2,6-dioxopiperidin-3-yl)-6-fluoro-1,3-dioxoisoindolin-5-yl)-2,6-diazaspiro[3.3]heptan-2-yl)methyl)piperidin-1-yl)pyridazine-3-amide] |  |  | DC50: < 10 nM; Dmax: > 80%
N#Cc1ccc(O[C@H]2CC[C@H](NC(=O)c3ccc(N4CC5(CN(CC6CCN(c7cc8c(cc7F)C(=O)N(C7CCC(=O)NC7=O)C8=O)CC6)C5)C4)nn3)CC2)cc1Cl (stereo partly drawn) [Compound 124] | < 10 | > 80 | 
N#Cc1ccc(O[C@H]2CC[C@H](NC(=O)c3cnc(N4CC5(CN(CC6CCN(c7cc8c(cc7F)C(=O)N(C7CCC(=O)NC7=O)C8=O)CC6)C5)C4)cn3)CC2)cc1Cl (stereo partly drawn) [Compound 125] | < 10 | > 80 | 
